Assay results taken from patent publication US7109354B2, “Thiophene amidines, compositions thereof, and methods of treating complement-mediated diseases and conditions” (3-Dimensional Pharmaceuticals, Inc., priority 2002, dated 2006).
“And” between values parts separate entries of the source, which are not always exact repeats. Equal entries are not always repeated. Structures can show the parent of a compound that is named as a salt.

target: T1, Activated human C1s (Homo sapiens, UniProt P09871); experiment: In vitro inhibition of C1s (Ki determination, C1s-catalyzed hydrolysis of Z-Gly-Arg-S-Bzl, DTNB readout); assay type: biochemical; settings: substrate Z-Gly-Arg-S-Bzl 45 μM, DTNB 200 μM, C1s 2.3 nM, pH 7.5, 37° C., absorbance at 405 nm
T1 construct: purchased Calbiochem (La Jolla, Calif.)
T1 sequence (P09871 438-688 limits assumed): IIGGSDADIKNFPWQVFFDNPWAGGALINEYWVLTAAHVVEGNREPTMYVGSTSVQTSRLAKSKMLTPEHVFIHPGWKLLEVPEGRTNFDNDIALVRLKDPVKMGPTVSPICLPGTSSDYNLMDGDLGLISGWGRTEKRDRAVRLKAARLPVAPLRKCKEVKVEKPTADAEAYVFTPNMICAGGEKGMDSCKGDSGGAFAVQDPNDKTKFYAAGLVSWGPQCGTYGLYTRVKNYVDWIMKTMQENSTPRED
T1 sequence (P09871 16-437 partner limits assumed): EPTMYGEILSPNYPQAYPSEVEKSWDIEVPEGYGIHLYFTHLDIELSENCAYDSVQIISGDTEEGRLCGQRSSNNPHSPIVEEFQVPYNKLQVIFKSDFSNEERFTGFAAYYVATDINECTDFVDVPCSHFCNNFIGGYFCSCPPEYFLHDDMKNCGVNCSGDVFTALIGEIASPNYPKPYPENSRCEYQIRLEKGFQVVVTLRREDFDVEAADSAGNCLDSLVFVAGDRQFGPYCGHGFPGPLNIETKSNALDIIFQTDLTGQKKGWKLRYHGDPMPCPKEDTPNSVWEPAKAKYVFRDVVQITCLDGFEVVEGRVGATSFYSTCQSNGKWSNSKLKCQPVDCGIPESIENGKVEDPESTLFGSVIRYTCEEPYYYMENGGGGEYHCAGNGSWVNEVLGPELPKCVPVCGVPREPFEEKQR

SMILES | Ki
CSc1sc(C(=N)N)cc1S(=O)(=O)c1cccc(-c2cccc3ccccc23)c1 [Example 91, 5-methylsulfanyl-4-(3-naphthalen-1-yl-benzenesulfonyl)-thiophene-2-carboxamidine] | 0.006 to 0.023 µM
COc1ccccc1-c1cccc(S(=O)(=O)c2cc(C(=N)N)sc2SC)c1 [Example 45, 4-(2′-Methoxy-biphenyl-3-sulfonyl)-5-methylsulfanyl-thiophene-2-carboxamidine] | 0.006 to 0.023 µM
CSc1sc(C(=N)N)cc1S(=O)(=O)c1cccc(-c2ccccc2C=O)c1 [Example 93, 4-(2′-formyl-biphenyl-3-sulfonyl)-5-methylsulfanyl-thiophene-2-carboxamidine] | 0.006 to 0.023 µM
CSc1sc(C(=N)N)cc1S(=O)(=O)c1cccc(-c2cccc(-c3ccccc3)c2)c1 [Example 65, 5-Methylsulfanyl-4-([1,1′;3′,1″]terphenyl-3-sulfonyl)-thiopbene-2-carboxamidine] | 0.006 to 0.023 µM
CSc1sc(C(=N)N)cc1S(=O)(=O)c1cccc(-c2ccccc2N)c1 [Example 107, 4-(2′-amino-biphenyl-3-sulfonyl)-5-methylsulfanyl-thiophene-2-carboxamidine] | 0.006 to 0.023 µM
CSc1sc(C(=N)N)cc1S(=O)(=O)c1cnc(Cl)c(Br)c1 [Example 118, 4-(5-Bromo-6-chloro-pyridine-3-sulfonyl)-5-methylsulfanyl-thiophene-2-carboxamidine] | 0.006 to 0.023 µM
CSc1sc(C(=N)N)cc1S(=O)(=O)c1cccc(-c2cccc(C(=O)OC(C)C)c2C)c1 [Example 3, 3′-(5-Carbamimidoyl-2-methylsulfanyl-thiophene-3-sulfonyl)-2-methyl-biphenyl-3-carboxylic acid isopropyl ester trifluoroacetate] | 0.006 to 0.023 µM
C=CCOc1cc(Br)cc(S(=O)(=O)c2cc(C(=N)N)sc2SC)c1 [Example 12, 4-(3-Allyloxy-5-bromo-benzenesulfonyl)-5-methylsulfanyl-thiophene-2-carboxamidine hydrochloride] | 0.006 to 0.023 µM
CSc1sc(C(=N)N)cc1S(=O)(=O)c1cccc(-c2c(C)cccc2NC(=O)NCCNS(C)(=O)=O)c1 [Example 195, 4-{2′-[3-(2-Methanesulfonylamino-ethyl)-ureido]-6′-methyl-biphenyl-3-sulfonyl}-5-methylsulfanyl-thiophene-2-carboxamidine trifluoroacetate] | 0.006 to 0.023 µM
COc1cc(-c2ccccc2)cc(S(=O)(=O)c2cc(C(=N)N)sc2SC)c1 [Example 15, 4-(5-Methoxy-biphenyl-3-sulfonyl)-5-methylsulfanyl-thiophene-2-carboxamidine hydrochloride] | 0.006 to 0.023 µM
CSc1sc(C(=N)N)cc1S(=O)(=O)c1cccc(-c2ccccc2C(F)(F)F)c1 [Example 67, 5-Methylsulfanyl-4-(2′-trifluoromethyl-biphenyl-3-sulfonyl)-thiophene-2-carboxamidine] | 0.006 to 0.023 µM
CSc1sc(C(=N)N)cc1S(=O)(=O)c1cccc(-c2c(C)cccc2NC(=O)CSCC(N)=O)c1 [Example 246, 2-{[3′-(5-Carbamimidoyl-2-methylsulfanyl-thiophene-3-sulfonyl)-6-methyl-biphenyl-2-ylcarbamoyl]-methylsulfanyl}-acetamide trifluoroacetate] | 0.006 to 0.023 µM
COc1cc(C)c(-c2cccc(S(=O)(=O)c3cc(C(=N)N)sc3SC)c2)c(COCC(=O)O)c1 [Example 192, [3′-(5-Carbamimidoyl-2-methylsulfanyl-thiophene-3-sulfonyl)-4-methoxy-6-methyl-biphenyl-2-ylmethoxy]-acetic acid trifluoroacetate] | 0.006 to 0.023 µM

Continued, values first:

Ki | SMILES
0.006 to 0.023 µM | CSc1sc(C(=N)N)cc1S(=O)(=O)c1cccc(-c2ccc(O)cc2)c1 [Example 79, 4-(4′-Hydroxy-biphenyl-3-sulfonyl)-5-methylsulfanyl-thiophene-2-carboxamidine]
0.006 to 0.023 µM | CSc1sc(C(=N)N)cc1S(=O)(=O)c1cccc(-c2ccccc2)c1 [Example 117, 4-(Biphenyl-3-sulfonyl)-5-methylsulfanyl-thiophene-2-carboxamidine trifluoroacetate]
0.006 to 0.023 µM | CSc1sc(C(=N)N)cc1S(=O)(=O)c1cccc(-c2c(C)cccc2N)c1 [Example 25, 4-(2′-Amino-6′-methyl-biphenyl-3-sulfonyl)-5-methylsulfanyl-thiophene-2-carboxamidine trifluoroacetate]
0.006 to 0.023 µM | CSc1sc(C(=N)N)cc1S(=O)(=O)c1cccc(-c2cccc(C)c2C)c1 [Example 99, 4-(2′,3′-dimethyl-biphenyl-3-sulfonyl)-5-methylsulfanyl-thiophene-2-carboxamidine]
0.006 to 0.023 µM and 0.023 µM | CSc1sc(C(=N)N)cc1S(=O)(=O)c1cccc(-c2ncccc2C)c1 [Example 11, 4-[3-(3-Methyl-pyridin-2-yl)-benzenesulfonyl]-5-methylsulfanyl-thiophene-2-carboxamidine bis-trifluoroacetate]
0.006 to 0.023 µM | COc1ccc(-c2cccc(S(=O)(=O)c3cc(C(=N)N)sc3SC)c2)cc1OC [Example 43, 4-(3′,4′-Dimethoxy-biphenyl-3-sulfonyl)-5-methylsulfanyl-thiophene-2-carboxamidine]
0.006 to 0.023 µM | CSc1sc(C(=N)N)cc1S(=O)(=O)c1cccc(-c2ccc(C)c([N+](=O)[O-])c2)c1 [Example 51, 4-(4′-Methyl-3′-nitro-biphenyl-3-sulfonyl)-5-methylsulfanyl-thiophene-2-carboxamidine]
0.006 to 0.023 µM | CSc1sc(C(=N)N)cc1S(=O)(=O)c1cccc(-c2c(C)cc(NC(=N)N)cc2[N+](=O)[O-])c1 [Example 236, 4-(4′-Guanidino-2′-methyl-6′-nitro-biphenyl-3-sulfonyl)-5-methylsulfanyl-thiophene-2-carboxamidine bis-trifluoroacetate]
0.006 to 0.023 µM | CCOc1cccc(-c2cccc(S(=O)(=O)c3cc(C(=N)N)sc3SC)c2)c1 [Example 95, 4-(3′-ethoxy-biphenyl-3-sulfonyl)-5-methylsulfanyl-thiophene-2-carboxamidine]
0.006 to 0.023 µM | CSc1sc(C(=N)N)cc1S(=O)(=O)c1cccc(-c2ccc(NC(=N)N)cc2C)c1 [Example 314, 4-(4′-Guanidino-2′-methyl-biphenyl-3-sulfonyl)-5-methylsulfanyl-thiophene-2-carboxamidine bis-trifluoroacetate]
0.006 to 0.023 µM | CSc1sc(C(=N)N)cc1S(=O)(=O)c1cccc(-c2cc(C)cc(C)c2)c1 [Example 75, 4-(3′,5′-Dimethyl-biphenyl-3-sulfonyl)-5-methylsulfanyl-thiophene-2-carboxamidine]
0.006 to 0.023 µM | CSc1sc(C(=N)N)cc1S(=O)(=O)c1cccc(-c2c(C)cccc2C)c1 [Example 96, 4-(2′,6′-dimethyl-biphenyl-3-sulfonyl)-5-methylsulfanyl-thiophene-2-carboxamidine]
0.006 to 0.023 µM | CSc1sc(C(=N)N)cc1S(=O)(=O)c1cccc(-c2ccc(N(C)C)cc2)c1 [Example 86, 4-(4′-dimethylamino-biphenyl-3-sulfonyl)-5-methylsulfanyl-thiophene-2-carboxamidine]
